How the values were obtained:
Test in all cases: cells
COLO-800 = type: functional, cell-based, Homo sapiens; conditions: Homo sapiens, COLO-800;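 note: growth inhibition of COLO-800 cells, read out with a cell viability assay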
Description: SANGER: Inhibition of human COLO-800 cell growth in a cell viability assay.

COLO-829 = type: functional, cell-based, Homo sapiens; conditions: Homo sapiens, COLO-829
Description: SANGER: Inhibition of human COLO-829 cell growth in a cell viability assay.

CTV-1 = type: functional, cell-based, Homo sapiens; conditions: Homo sapiens, CTV-1;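 note: growth inhibition of the cell line, read out with a cell viability assay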
Description: SANGER: Inhibition of human CTV-1 cell growth in a cell viability assay.

D-247MG = type: functional, cell-based; conditions: Homo sapiens
Description: SANGER: Inhibition of human D-247MG cell growth in a cell viability assay.

D283 Med = type: functional, cell-based, Homo sapiens; conditions: Homo sapiens, D283 Med
Description: SANGER: Inhibition of human D-283MED cell growth in a cell viability assay.

DEL = type: functional, cell-based, Homo sapiens; conditions: Homo sapiens, DEL;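 note: growth inhibition of the human DEL cell line, read out with a cell viability assay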
Description: SANGER: Inhibition of human DEL cell growth in a cell viability assay.

DMS-114 = type: functional, cell-based, Homo sapiens; conditions: Homo sapiens, DMS-114
DOHH-2 = type: functional, cell-based, Homo sapiens; conditions: Homo sapiens, DOHH-2;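 note: growth inhibition of human DOHH-2 cells, read out with a cell viability assay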
Description: SANGER: Inhibition of human DOHH-2 cell growth in a cell viability assay.

DU-4475 = type: functional, cell-based, Homo sapiens; conditions: Homo sapiens, DU-4475
Description: SANGER: Inhibition of human DU-4475 cell growth in a cell viability assay.

EW-13 = type: functional, cell-based, Homo sapiens; conditions: Homo sapiens, EW-13; read-out: IC50;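 note: growth inhibition of EW-13 cells, read out with a cell viability assay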
Description: SANGER: Inhibition of human EW-13 cell growth in a cell viability assay.

GAK = type: functional, cell-based, Homo sapiens; conditions: Homo sapiens, GAK;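 note: cell growth inhibition read out by a cell viability assay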
Description: SANGER: Inhibition of human GAK cell growth in a cell viability assay.

HCE-4 = type: functional, cell-based; conditions: Homo sapiens;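 note: cell viability assay measuring inhibition of growth in the human HCE-4 cell line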
Description: SANGER: Inhibition of human HCE-4 cell growth in a cell viability assay.

HEL = type: functional, cell-based, Homo sapiens; conditions: Homo sapiens, HEL;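 note: growth inhibition of HEL cells, read out with a cell viability assay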
Description: SANGER: Inhibition of human HEL cell growth in a cell viability assay.

IST-SL1 = type: functional, cell-based, Homo sapiens; conditions: Homo sapiens, IST-SL1;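 note: growth inhibition of human IST-SL1 cells, read out with a cell viability assay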
Description: SANGER: Inhibition of human IST-SL1 cell growth in a cell viability assay.

J-RT3-T3-5 = type: functional, cell-based, Homo sapiens; conditions: Homo sapiens, J-RT3-T3-5;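 note: cell viability assay measuring growth inhibition of human J-RT3-T3-5 cells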
Description: SANGER: Inhibition of human J-RT3-T3-5 cell growth in a cell viability assay.

KM-H2 = type: functional, cell-based, Homo sapiens; conditions: Homo sapiens, KM-H2;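 note: growth inhibition of KM-H2 cells, read out by a cell viability assay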
Description: SANGER: Inhibition of human KM-H2 cell growth in a cell viability assay.

L-428 = type: functional, cell-based, Homo sapiens; conditions: Homo sapiens, L-428
Description: SANGER: Inhibition of human L-428 cell growth in a cell viability assay.

LS-411N = type: functional, cell-based, Homo sapiens; conditions: Homo sapiens, LS-411N
LXF-289 cell line = type: functional, cell-based; conditions: Homo sapiens
Description: SANGER: Inhibition of human LXF-289 cell growth in a cell viability assay.

NB10 = type: functional, cell-based, Homo sapiens; conditions: Homo sapiens, NB10;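 note: growth inhibition of NB10 cells, read out by a cell viability assay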
Description: SANGER: Inhibition of human NB10 cell growth in a cell viability assay.

NCI-H1092 = type: functional, cell-based, Homo sapiens; conditions: Homo sapiens, NCI-H1092;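 note: cell growth inhibition measured with a cell viability assay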
Description: SANGER: Inhibition of human NCI-H1092 cell growth in a cell viability assay.

NCI-H1770 = type: functional, cell-based, Homo sapiens; conditions: Homo sapiens, NCI-H1770;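 note: growth inhibition of NCI-H1770 cells determined with a viability readout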
Description: SANGER: Inhibition of human NCI-H1770 cell growth in a cell viability assay.

NCI-H526 = type: functional, cell-based, Homo sapiens; conditions: Homo sapiens, NCI-H526;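 note: growth inhibition of the human NCI-H526 cell line, measured by a cell viability assay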
Description: SANGER: Inhibition of human NCI-H526 cell growth in a cell viability assay.

NCI-H69 = type: functional, cell-based, Homo sapiens; conditions: Homo sapiens, NCI-H69;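 note: growth inhibition of the cell line, read out with a cell viability assay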
Description: SANGER: Inhibition of human NCI-H69 cell growth in a cell viability assay.

NCI-N87 = type: functional, cell-based; conditions: Homo sapiens;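 note: growth inhibition of human NCI-N87 cells, read out with a cell viability assay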
Description: SANGER: Inhibition of human NCI-N87 cell growth in a cell viability assay.

SNU1 = type: functional, cell-based, Homo sapiens; conditions: Homo sapiens, SNU1;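 note: growth inhibition of human NCI-SNU-1 cells, measured with a cell viability assay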
Description: SANGER: Inhibition of human NCI-SNU-1 cell growth in a cell viability assay.

SNU-5 = type: functional, cell-based, Homo sapiens; conditions: Homo sapiens, SNU-5;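 note: cell viability readout used to measure growth inhibition in human NCI-SNU-5 cells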
Description: SANGER: Inhibition of human NCI-SNU-5 cell growth in a cell viability assay.

NEC8 = type: functional, cell-based, Homo sapiens; conditions: Homo sapiens, NEC8;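 note: growth inhibition of human NEC8 cells, read out by a cell viability assay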
Description: SANGER: Inhibition of human NEC8 cell growth in a cell viability assay.

NKM-1 = type: functional, cell-based, Homo sapiens; conditions: Homo sapiens, NKM-1;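 note: growth inhibition of NKM-1 cells, read out with a cell viability assay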
Description: SANGER: Inhibition of human NKM-1 cell growth in a cell viability assay.

NOMO-1 = type: functional, cell-based, Homo sapiens; conditions: Homo sapiens, NOMO-1;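 note: growth inhibition of human NOMO-1 cells measured by a cell viability assay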
Description: SANGER: Inhibition of human NOMO-1 cell growth in a cell viability assay.

OVCAR-4 = type: functional, cell-based, Homo sapiens; conditions: Homo sapiens, OVCAR-4;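 note: growth inhibition of human OVCAR-4 cells, measured with a cell viability assay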
Description: SANGER: Inhibition of human OVCAR-4 cell growth in a cell viability assay.

PSN1 = type: functional, cell-based, Homo sapiens; conditions: Homo sapiens, PSN1;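 note: suppression of growth of human PSN1 cells, read out by a cell viability assay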
Description: SANGER: Inhibition of human PSN1 cell growth in a cell viability assay.

RKO = type: functional, cell-based, Homo sapiens; conditions: Homo sapiens, RKO;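 note: growth inhibition of human RKO cells, read out with a cell viability assay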
Description: SANGER: Inhibition of human RKO cell growth in a cell viability assay.

RS4-11 = type: functional, cell-based, Homo sapiens; conditions: Homo sapiens, RS4-11;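 note: growth inhibition of RS4-11 cells, read out by a cell viability assay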
Description: SANGER: Inhibition of human RS4-11 cell growth in a cell viability assay.

SK-NEP-1 = type: functional, cell-based, Homo sapiens; conditions: Homo sapiens, SK-NEP-1;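 note: growth inhibition of human SK-NEP-1 cells, read out by a cell viability assay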
Description: SANGER: Inhibition of human SK-NEP-1 cell growth in a cell viability assay.

SNU-C2B = type: functional, cell-based; conditions: Homo sapiens;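 note: cell viability readout used to measure compound-driven suppression of SNU-C2B cell proliferation, IC50 marking half-maximal growth inhibition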
Description: SANGER: Inhibition of human SNU-C2B cell growth in a cell viability assay.

A498 = type: functional, cell-based, Homo sapiens; conditions: Homo sapiens, A498;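 note: growth inhibition of human A498 cells, read out with a cell viability assay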
Description: SANGER: Inhibition of human A498 cell growth in a cell viability assay.

A704 = type: functional, cell-based; conditions: Homo sapiens;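 note: growth inhibition of human A704 cells, read out with a cell viability assay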
Description: SANGER: Inhibition of human A704 cell growth in a cell viability assay.

ATN-1 = type: functional, cell-based, Homo sapiens; conditions: Homo sapiens, ATN-1;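 note: growth inhibition of human ATN-1 cells, read out with a cell viability assay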
Description: SANGER: Inhibition of human ATN-1 cell growth in a cell viability assay.

BT-474 = type: functional, cell-based, Homo sapiens; conditions: Homo sapiens, BT-474
Description: SANGER: Inhibition of human BT-474 cell growth in a cell viability assay.

Becker = type: functional, cell-based, Homo sapiens; conditions: Homo sapiens, Becker;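 note: growth inhibition of Becker cells, read out with a cell viability assay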
Description: SANGER: Inhibition of human Becker cell growth in a cell viability assay.

C8166 = type: functional, cell-based, Homo sapiens; conditions: Homo sapiens, C8166;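 note: growth inhibition of human C8166 cells measured by a cell viability assay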
Description: SANGER: Inhibition of human C8166 cell growth in a cell viability assay.

TE-8 = type: functional, cell-based, Homo sapiens; conditions: Homo sapiens, TE-8;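 note: growth inhibition of TE-8 cells, measured with a cell viability readout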
Description: SANGER: Inhibition of human TE-8 cell growth in a cell viability assay.

TK-10 = type: functional, cell-based, Homo sapiens; conditions: Homo sapiens, TK-10;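 note: growth inhibition of TK-10 cells, read out in a cell viability assay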
Description: SANGER: Inhibition of human TK10 cell growth in a cell viability assay.

U-266 = type: functional, cell-based, Homo sapiens; conditions: Homo sapiens, U-266
Description: SANGER: Inhibition of human U-266 cell growth in a cell viability assay.

U-87 MG = type: functional, cell-based, Homo sapiens, U-87MG ATCC; conditions: Homo sapiens, U-87 MG;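 note: growth inhibition of the cells measured with a viability assay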
Description: SANGER: Inhibition of human U-87-MG cell growth in a cell viability assay.

UACC-257 = type: functional, cell-based, Homo sapiens; conditions: Homo sapiens, UACC-257
Description: SANGER: Inhibition of human UACC-257 cell growth in a cell viability assay.

CGTH-W-1 = type: functional, cell-based, Homo sapiens; conditions: Homo sapiens, CGTH-W-1;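 note: growth inhibition of human CGTH-W-1 cells measured by cell viability assay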
Description: SANGER: Inhibition of human CGTH-W-1 cell growth in a cell viability assay.

COLO-320-HSR = type: functional, cell-based, Homo sapiens; conditions: Homo sapiens, COLO-320-HSR;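 note: growth inhibition of COLO-320-HSR cells, determined with a cell viability assay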
Description: SANGER: Inhibition of human COLO-320-HSR cell growth in a cell viability assay.

COLO-684 = type: functional, cell-based, Homo sapiens; conditions: Homo sapiens, COLO-684
Description: SANGER: Inhibition of human COLO-684 cell growth in a cell viability assay.

Measured: IC50

O=S(=O)(O)c1ccc2cc(/N=N/c3cc(S(=O)(=O)O)c4cccnc4c3O)ccc2c1
5.17 µM: EW-13
> 16 µM: COLO-800 | COLO-829 | CTV-1 | D-247MG | D283 Med | DEL | DMS-114 | DOHH-2 | DU-4475 | GAK | HCE-4 | HEL | IST-SL1 | J-RT3-T3-5 | KM-H2 | L-428 | LS-411N | LXF-289 cell line | NB10 | NCI-H1092 | NCI-H1770 | NCI-H526 | NCI-H69 | NCI-N87 | SNU1 | SNU-5 | NEC8 | NKM-1 | NOMO-1 | OVCAR-4 | PSN1 | RKO | RS4-11 | SK-NEP-1 | SNU-C2B | A498 | A704 | ATN-1 | BT-474 | Becker | C8166 | TE-8 | TK-10 | U-266 | U-87 MG | UACC-257 | CGTH-W-1 | COLO-320-HSR | COLO-684
